Reference: the Deep4Chem optical property database
One block for each compound: values may come before it.

Experiment: solvent given as SMILES

absorption maximum (in CN(C)C=O): 344 nm
SMILES: Cc1ccc2[nH]c(-c3ccc(-c4ccc(-c5ccc(-c6nc7cc(C)ccc7[nH]6)cc5)c(F)c4)cc3)nc2c1

absorption maximum (in CCCCCC): 439 nm | absorption maximum (in CO): 443 nm
SMILES: O=C1C=C(Nc2ccc(F)cc2F)C(=O)c2ccccc21

absorption maximum (in CC#N): 362 nm | absorption maximum (in CCCCCC): 362 nm
SMILES: C(=C\c1ccc(N(c2ccccc2)c2ccccc2)cc1)/c1ccccc1

absorption maximum (in ClC(Cl)Cl): 364 nm
SMILES: c1ccc2c(c1)Oc1ccccc1C21c2cc(-c3ccc4ccc5cccc6ccc3c4c56)ccc2-c2ccc(-c3ccc4ccc5cccc6ccc3c4c56)cc21

absorption maximum (in ClCCl): 445 nm
SMILES: N#CC(C#N)=Cc1ccc2c(c1)[nH]c1c3ccccc3sc21

absorption maximum (in C1CCCCC1): 608.5 nm | absorption maximum (in CCOC(C)=O): 605 nm
SMILES: CC1=[N+]2C(=C(c3cccs3)c3ccc(C)n3[B-]2(F)F)C=C1c1cc2n(c1)[B-](F)(F)[N+]1=CC=CC1=C2c1c(C)cc(C)cc1C

absorption maximum (in CCO): 393 nm
SMILES: CCN(CC)c1cc2sc3cc(N(CC)CC)c(F)cc3c(=O)c2cc1F

absorption maximum (in ClCCl): 626 nm
SMILES: CCCCN1C(=O)c2cc(Oc3ccc(C(C)(C)C)cc3)c3c4c(Oc5ccc(C(C)(C)C)cc5)cc5c(=O)[nH]/c(=C\c6ccc7ccccc7n6)c6cc(Oc7ccc(C(C)(C)C)cc7)c(c7c(Oc8ccc(C(C)(C)C)cc8)cc(c2c37)C1=O)c4c56

absorption maximum (in C1CCOC1): 450 nm
SMILES: FC(F)(F)c1ccc(/C=C2\C=C(c3ccccc3)C=C2c2ccccc2)cc1

absorption maximum (in C1CCOC1): 342 nm | absorption maximum (in CCCCCC): 338 nm | absorption maximum (in CCO): 344 nm | absorption maximum (in CS(C)=O): 345 nm
SMILES: CCOc1ccc2cc(-c3ccc(C)cc3)c(=O)oc2c1

absorption maximum (in C1CCOC1): 400 nm
SMILES: CCCCCCC1(CCCCCC)c2cc(-c3nc(-c4ccc5c(c4)C(CCCCCC)(CCCCCC)c4cc(N6c7ccccc7Sc7ccccc76)ccc4-5)nc(-c4ccc5c(c4)C(CCCCCC)(CCCCCC)c4cc(N6c7ccccc7Sc7ccccc76)ccc4-5)n3)ccc2-c2ccc(N3c4ccccc4Sc4ccccc43)cc21

absorption maximum (in C1CCOC1): 346 nm
SMILES: COc1ccc(-c2cc3oc(=O)cc(C)c3cc2-c2ccc(OC)c(OC)c2)cc1OC

absorption maximum (in ClCCl): 330 nm
SMILES: COc1ccc(-c2cnc(C#Cc3ccccc3)o2)cc1OC

absorption maximum (in ClCCl): 370 nm
SMILES: Cc1c(C(=O)c2ccc(C(F)(F)F)cc2)c2ccc3cccc4c5cccc6ccc1c(c65)c2c34

absorption maximum (in C1CCOC1): 362 nm
SMILES: c1ccc(-c2nc3c4ccccc4c4ccccc4c3n2-c2ccccc2)cc1

absorption maximum (in ClCCl): 615 nm
SMILES: COc1ccc(C#Cc2c3cc4ccccc4cc3c(C#Cc3ccc(OC)cc3)c3cc4sc(C)cc4cc23)cc1

absorption maximum (in CCCCCC): 344 nm | absorption maximum (in CCO): 344 nm | absorption maximum (in CCOC(C)=O): 344 nm | absorption maximum (in ClCCl): 347 nm
SMILES: c1cc2ccc3ccc(-n4c5ccccc5c5ccccc54)c4ccc(c1)c2c34

absorption maximum (in C1COCCO1): 331 nm | absorption maximum (in CC#N): 330 nm | absorption maximum (in CO): 335 nm | absorption maximum (in ClCCl): 328 nm | absorption maximum (in O): 325 nm
SMILES: COC(=O)c1nc2cnc(N)nc2n1Cc1ccccc1

absorption maximum (in CCO): 364 nm
SMILES: CCOC(=O)c1cc(C(=O)OCC)c2cc(O)ccc2n1

absorption maximum (in ClC(Cl)Cl): 352 nm
SMILES: COc1cc(OC)c2cc(-c3cccc(-c4cc5c(OC)cc(OC)cc5oc4=O)c3)c(=O)oc2c1

absorption maximum (in ClCCl): 329 nm
SMILES: CCOC(=O)C1=C(C(=O)OCC)C2(c3ccccc3-c3c(Br)cc(Br)cc32)C2(/C=C/c3ccc(Cl)cc3)c3cc(OC)c(OC)cc3CCN12 (stereo not given)

absorption maximum (in c1cc(-c2cccc(-n3c4ccccc4c4ccccc43)c2)cc(-n2c3ccccc3c3ccccc32)c1): 371.92 nm
SMILES: Cc1cc(-c2nc(-c3ccccc3)nc(-c3ccccc3)n2)ccc1-c1ccc2c(c1)C1(c3ccccc3-c3ccccc31)c1ccccc1N2c1ccccc1

absorption maximum (in ClCCl): 314 nm
SMILES: Clc1ccccc1N1c2sc3ccccc3c2Sc2sc3ccccc3c21

absorption maximum (in CCO): 265 nm
SMILES: CC(C)=N[O-]

absorption maximum (in CN(C)C=O): 523 nm
SMILES: CCCCCCCCCCCCN1C(=O)c2ccc3c4ccc5c6c(ccc(c7ccc(c2c37)C1=O)c64)C(=O)N(CCCCCCCCCCCC)C5=O

absorption maximum (in CC#N): 418 nm
SMILES: CCCCCCCCCC[n+]1cc2ccc3c[n+](CCCCCCCCCC)cc4ccc(c1)c2c34

absorption maximum (in C1CCCCC1): 329 nm
SMILES: c1ccc(-c2c3c(c(-c4ccccc4)c4c2-c2ccccc2C4)-c2ccccc2C3)cc1

absorption maximum (in ClCCl): 393 nm
SMILES: CN(C)c1ccc(/C=C/c2ccncn2)cc1

absorption maximum (in ClC(Cl)Cl): 423 nm
SMILES: CCCCN1c2ccccc2Sc2cc(/C=C\c3cc(=O)oc4ccc(C)cc34)ccc21

absorption maximum (in ClC(Cl)Cl): 346 nm
SMILES: c1ccc2c(c1)oc1nc3oc4ccc(-n5c6ccccc6c6ccccc65)cc4c3cc12

absorption maximum (in ClCCl): 417 nm
SMILES: CCN(CC)c1ccc2cc(-c3ccc(-c4ccc(-c5cc6ccc(N(CC)CC)cc6oc5=O)cc4)cc3)c(=O)oc2c1

absorption maximum (in C1CCCCC1): 303 nm | absorption maximum (in CC#N): 374 nm | absorption maximum (in CO): 298 nm | absorption maximum (in ClCCl): 374 nm | absorption maximum (in O): 330 nm
SMILES: COc1ccccc1-c1nc(-c2ccccc2)c2ccccn12

absorption maximum (in ClCCl): 454 nm
SMILES: CCCCOc1c(C#N)cc2cc(C#N)c(OCCCC)c3c4c(OCCCC)c(C#N)cc5cc(C#N)c(OCCCC)c(c1c23)c54

absorption maximum (in CC#N): 344 nm | absorption maximum (in CCCCCCCCCCCCCCCC): 333 nm | absorption maximum (in CO): 353 nm | absorption maximum (in ClC(Cl)Cl): 341 nm | absorption maximum (in c1ccccc1): 339 nm
SMILES: CC(C)(C)C1Nc2ccccc2C(=O)N1Cc1ccccc1 (stereo not given)

absorption maximum (in CC#N): 359 nm | absorption maximum (in ClCCl): 360 nm
SMILES: Cc1cc(O)c(C(=O)/C=C/c2ccccc2O)c(=O)o1

absorption maximum (in ClCCl): 455 nm
SMILES: COc1ccc(/C=C/c2nc(-c3ccc([N+](=O)[O-])cc3)[nH]c2/C=C/c2ccc(OC)cc2)cc1

Further lines, the compound ahead of its results:

SMILES: CN1C2=Nc3n(C)c4ccccc4[n+]3CN2c2ccccc21
absorption maximum (in CO): 339 nm

SMILES: CCOC(=O)COc1ccc(/C=C/c2c(CC)c(C)c3n2[B-](F)(F)[N+]2=C(c4[nH]c(C)c(CC)c4C)c4ccccc4C2=C3C)cc1
absorption maximum (in C1CCOC1): 675 nm | absorption maximum (in CC#N): 664 nm | absorption maximum (in CCCCCC): 677 nm | absorption maximum (in CO): 666 nm | absorption maximum (in Cc1ccccc1): 682 nm | absorption maximum (in ClCCl): 675 nm

SMILES: CC1(C)C(/C=C/C=C/c2cc3ccc(O)cc3oc2=O)=[N+](CCCS(=O)(=O)[O-])c2ccc(S(=O)(=O)O)cc21
absorption maximum (in CCO): 508 nm | absorption maximum (in CS(C)=O): 494 nm | absorption maximum (in O): 592 nm

SMILES: Cc1ccc(N(c2ccc(C)cc2)c2ccc(-c3ccc(-c4ccc(N(c5ccc(C)cc5)c5ccc(C)cc5)cc4)c4nsnc34)cc2)cc1
absorption maximum (in Cc1ccccc1): 474 nm | absorption maximum (in ClCCl): 485 nm

SMILES: CC(C)(C)OC(=O)CN1CCN(c2ccc3c(-c4ccc(I)cc4)c4ccc(=[N+]5CCN(CC(=O)OC(C)(C)C)CC5)cc-4oc3c2)CC1
absorption maximum (in ClCCl): 564 nm

SMILES: Cc1ccc(-c2ccc(/C=C/c3ccc([N+](=O)[O-])cc3)cn2)nc1
absorption maximum (in CC#N): 349 nm

SMILES: CCCC1=Cc2nc1ccc1[nH]c(cc1CCC)c1nc(c(N)cc3[nH]c2cc3CCC)C(CCC)=C1
absorption maximum (in Cc1ccccc1): 710 nm

SMILES: F[Si-](F)(c1c2ccccc2cc2ccccc12)(c1c2ccccc2cc2ccccc12)c1c2ccccc2cc2ccccc12
absorption maximum (in C1CCOC1): 392 nm

SMILES: COc1ccc(O)cc1C=O
absorption maximum (in CO): 355 nm | absorption maximum (in ClC(Cl)Cl): 349 nm

SMILES: COC(=O)c1cc(=O)n(Cc2ccccc2)c2cc(-c3ccc(OC)cc3)sc12
absorption maximum (in CC#N): 400 nm | absorption maximum (in ClCCl): 404 nm

SMILES: CC(C)(C)c1ccc2c(c1)c1cc(C(C)(C)C)ccc1n2-c1cc[n+]2c(c1)-c1ccccc1O[B-]2(F)F
absorption maximum (in Cc1ccccc1): 375 nm

SMILES: Cc1ccc(N(c2ccc(C)cc2)c2ccc(-c3ccc(C=C(C#N)C#N)o3)cc2)cc1
absorption maximum (in ClC(Cl)Cl): 521 nm

SMILES: CC1(C)c2ccccc2N(c2ccc(-c3ccc4c(c3)c3cc(-c5ccc(N6c7ccccc7C(C)(C)c7ccccc76)cc5)ccc3c3nc(C#N)c(C#N)nc43)cc2)c2ccccc21
absorption maximum (in Cc1ccccc1): 405 nm

SMILES: F[B-]1(F)n2cccc2C(c2c3ccccc3cc3ccccc23)=C2C=CC=[N+]21
absorption maximum (in CC#N): 502 nm | absorption maximum (in CCCCCC): 505 nm | absorption maximum (in CCO): 503 nm | absorption maximum (in CN(C)C=O): 506 nm | absorption maximum (in Cc1ccccc1): 508 nm | absorption maximum (in ClCCl): 506 nm

SMILES: CCOCCOCCOC(=O)/C=C/C1=CC2=C(c3c(C)cc(C)cc3C)c3cccn3[B-](F)(F)[N+]2=C1
absorption maximum (in ClCCl): 536 nm

SMILES: O=S(=O)([O-])c1cc(S(=O)(=O)Cl)ccc1C1=c2cc3c4c(c2Oc2c1cc1c5c2CCCN5CCC1)CCC[N+]=4CCC3
absorption maximum (in O): 589 nm

SMILES: CCCCCCOc1cc(N(CC)CC)ccc1/C=C(\C#N)c1ccc(/C=C/C(=C(C#N)C#N)c2ccc3c(c2)c2ccccc2n3CC)s1
absorption maximum (in ClCCl): 570 nm

SMILES: CCCCCCc1ccc(-n2c3[n+](c4c5ccccc5c5ccccc5c42)[B-](C)(C)c2cc(N(c4ccccc4)c4ccccc4)ccc2-3)cc1
absorption maximum (in C1CCOC1): 393 nm | absorption maximum (in CC#N): 390 nm | absorption maximum (in Cc1ccccc1): 397 nm | absorption maximum (in ClCCl): 392 nm

SMILES: CCCCCCOc1cc2[nH]c(cc2CCOC)c2nc(ccc3[nH]c(cc3CCOC)c3nc1C(CCOC)=C3)C(CCOC)=C2
absorption maximum (in Cc1ccccc1): 684 nm

SMILES: COc1ccc(C2=CC(c3ccc(OC)cc3)=[O+][B-](C(C)=O)(C(C)=O)O2)cc1
absorption maximum (in CC#N): 410 nm | absorption maximum (in ClC(Cl)(Cl)Cl): 405 nm

SMILES: CS(=O)(=O)c1ccc(-c2cc3ccc(N)cc3c(=O)o2)cc1
absorption maximum (in CC(C)=O): 358 nm | absorption maximum (in CCCCCCCCO): 366 nm | absorption maximum (in CCCCO): 366 nm | absorption maximum (in CCCO): 366 nm | absorption maximum (in CCOC(C)=O): 356 nm | absorption maximum (in CN(C)C=O): 367 nm | absorption maximum (in CO): 358 nm | absorption maximum (in ClC(Cl)Cl): 351 nm

SMILES: C(=C\c1nc2c3ccccc3c3ccccc3c2o1)/c1ccccc1
absorption maximum (in CC#N): 364 nm

SMILES: CCCCC1(CCCC)c2cc(C#Cc3ccc4ccc5cccc6ccc3c4c56)ccc2-c2ccc(C#Cc3ccc4ccc5cccc6ccc3c4c56)cc21
absorption maximum (in C1CCCCC1): 418 nm | absorption maximum (in C1CCOC1): 421 nm | absorption maximum (in CC#N): 420 nm | absorption maximum (in CCOC(C)=O): 419 nm | absorption maximum (in CN(C)C=O): 427 nm | absorption maximum (in Cc1ccccc1): 424 nm | absorption maximum (in ClC(Cl)Cl): 421 nm | absorption maximum (in ClCCl): 424 nm

SMILES: O=C(c1ccc(C(=C(c2ccc(C(=O)c3ccc(-n4c5ccccc5c5ccccc54)cc3)cc2)c2ccc(C(=O)c3ccc(-n4c5ccccc5c5ccccc54)cc3)cc2)c2ccccc2)cc1)c1ccc(-n2c3ccccc3c3ccccc32)cc1
absorption maximum (in C1CCOC1): 340 nm
